Data reported in patent US20220347071A1, “USE OF CANNABINOIDS IN THE TREATMENT OF ORAL INFLAMMATION AND PERIODONTAL DISEASE” (priority 2021, published 2022).
Entries after “also recorded” stand apart in the source; their conditions may differ.

Tests used:
PGE2 = PGE2 release by PMA-stimulated NHEK (ELISA); type: cell-based, human; conditions: for PGE2 release, % of the control: highest tested concentration; for PGE2 release, % of the control / Effect on PGE2 release (in words) / PGE2 release, % of relative inhibition: PMA-stimulated keratinocytes; for PGE2 release, % of relative inhibition: concentration not given; for PGE2 release, % Relative inhibition: NHEK, PMA 0.5 μg/ml, 24 h
Description: (§1) The effects on normal human epidermal keratinocytes (NHEK) were measured by assessing IL-8 and PGE2 release by PMA-stimulated NHEK using specific ELISA kits.
(§2) Normal human epidermal keratinocytes (NHEK): • Cell type: NHEK • Culture conditions: 37° C., 5% CO2 • Culture medium: Keratinocyte SFM supplemented with Epidermal Growth Factor (EGF) 0.25 ng/ml • Pituitary extract (PE) 25 μg/ml • Gentamycin 25 μg/ml • Assay medium 1: Epilife® medium supplemented with PE 0.2% • Bovine transferrin 5 μg/ml • EGF 0.2 ng/ml • Insulin 5 μg/ml • Gentamycin/Amphotericin • Assay medium 2: Keratinocyte SFM supplemented with Gentamycin 25 μg/ml
(§3) Keratinocytes were seeded in 96-well plates and cultured for 24 hours in culture medium. […] After pre-incubation, the medium was removed and replacedby assay medium 1 containing or not (stimulated control) the compounds or the reference compound and containing the inducer (PMA tested at 0.5 μg/ml). The cells were then incubated for 24 hours. In parallel, a non-stimulated control condition was performed.
(§4) All experimental conditions were performed in n=3. At the end of incubation, the culture supernatants were collected for IL-8 and PGE2 quantifications.
(§5) IL-8 and PGE2 released in the culture supernatants were measured using specific ELISA kits according to the supplier's instructions.

IL-8 = IL-8 release by PMA-stimulated NHEK (ELISA); type: cell-based, human; conditions: for Effect on IL-8 release (in words): PMA-stimulated keratinocytes; for IL-8 release, % Relative inhibition: NHEK, PMA 0.5 μg/ml, 24 h
Description: as §1, §2, §3, §4, §5

C=C(C)[C@@H]1CCC(C)=C[C@H]1c1c(O)cc(CCCCC)cc1O [CBD, cannabidiol, reference compound]
PGE2 release, % of the control (PGE2): 185% | Effect on IL-8 release (in words) (IL-8; tested at 0.3 μM): overstimulated IL-8 release

C=C(C)[C@@H]1CCC(C)=C[C@H]1c1c(O)cc(CCCCC)c(C(=O)O)c1O [CBDA, cannabidiolic acid, reference compound]
Effect on PGE2 release (in words) (PGE2): did not modulate

CCCCCc1cc(O)c(C/C=C(\C)CCC=C(C)C)c(O)c1 [CBG, cannabigerol]
Effect on PGE2 release (in words) (PGE2): significant at all tested concentrations; also recorded: significantly inhibited | PGE2 release, % of relative inhibition (PGE2): about 160% | Effect on IL-8 release (in words) (IL-8; concentration not given): significantly inhibited | Effect on IL-8 release (in words) (IL-8; tested at 3 (unit not given)): strongly inhibited

CCCCCc1cc(O)c(C/C=C(\C)CCC=C(C)C)c(O)c1C(=O)O [CBGA, cannabigerolic acid, reference compound]
PGE2 release, % of the control (PGE2): 182%

CCCc1cc(O)c(C/C=C(\C)CCC=C(C)C)c(O)c1C(=O)O [CBGVA, cannabigerovarinic acid]
PGE2 release, % Relative inhibition (PGE2; 0.1 μM): 19% | PGE2 release, % Relative inhibition (PGE2; 0.3 μM): 65% | PGE2 release, % Relative inhibition (PGE2; 1 μM): >162% | Effect on PGE2 release (in words) (PGE2): significant effect only when tested at the highest concentration; also recorded: inhibited | PGE2 release, % of relative inhibition (PGE2): about 160% | IL-8 release, % Relative inhibition (IL-8; 0.1 μM): 2% | IL-8 release, % Relative inhibition (IL-8; 0.3 μM): 11% | IL-8 release, % Relative inhibition (IL-8; 1 μM): 9%

COc1ccc2c(c1)c(CC(=O)O)c(C)n2C(=O)c1ccc(Cl)cc1 [Indomethacin, indomethacin, reference compound]
PGE2 release, % Relative inhibition (PGE2; 1 μM): >169%

O=C1O[C@H]([C@@H](O)CO)C(O)=C1O [L-Ascorbic acid, reference compound]
Effect on PGE2 release (in words) (PGE2): overall the same effect at all tested concentrations; also recorded: significantly limited | PGE2 release, % of relative inhibition (PGE2): ~145%
